In patent US20210403415A1, “COMPOUNDS AND METHODS TO ATTENUATE TUMOR PROGRESSION AND METASTASIS” (THE TRUSTEES OF INDIANA UNIVERSITY, priority 2018, published 2021):
Where two headings read alike, the source gives them in different places.

Legend:
TEAD4 Cys367Ser mutant [1] = biological target: T1, TEAD4 Cys367Ser mutant (Homo sapiens, UniProt Q15561, C367S); assay: Fluorescence polarization, GST-TEAD4 Cys367Ser mutant with FAM-Yap60-99 peptide; format: binding; details: 24 h at 4° C.
T1 construct: TEAD4 (217-434) Cys367Ser mutant and Yap1 (Full-length) were expressed as GST-fusion proteins; made in house; host or cells: E. coli BL-21 (DE3), pGEX-6P-1
T1 sequence (Q15561 217-434 C367S): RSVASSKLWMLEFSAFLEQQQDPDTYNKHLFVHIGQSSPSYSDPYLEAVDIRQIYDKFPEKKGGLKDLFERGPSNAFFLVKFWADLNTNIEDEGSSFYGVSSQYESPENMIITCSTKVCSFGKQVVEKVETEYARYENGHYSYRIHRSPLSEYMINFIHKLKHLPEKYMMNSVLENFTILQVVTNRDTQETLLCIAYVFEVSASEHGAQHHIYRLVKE
Method: (§1) GST-TEAD4, GST-TEAD4 Cys367Ser mutant or HIS-TEAD2 interaction with Yap1 was investigated using a fluorescently-labeled peptide (FAM-Yap60-99), consisting of FAM-labeled TEAD-binding peptide fragment of Yap1 (FAM-[…] TVPMCLRKLPASFCKPP), which has a disulfide bridge (American Peptide, Sunnyvale, Calif.). Addition of FAM-Yap60-99 to the TEAD was followed by measurement of changes in polarization. 40 μL of 125 nM GST-TEAD4 WT or GST-TEAD4 Cys367Ser in assay buffer (PBS with 0.01% v/v Triton-X100) or 40 μL of 64 nM HIS-TEAD2 was added to a 384-well black polystyrene plate (Cat. No. 262260; Nunc, Roskilde, Denmark) and incubated with 5 μL of […] serially diluted compounds in assay buffer supplemented with 20% v/v DMSO for 24 h at 4° C. Finally, 5 μL of 160 nM FAM-Yap60-99 peptide was added, the plate centrifuged, and the polarization was measured on an Envision Multilabel Plate Reader (PerkinElmer, Waltham, Mass.) using a filter set with excitation and emission wavelengths of 485 and 535 nm, respectively. Percent inhibition was calculated as relative to a minimum inhibition control, which is without compound, and a maximum inhibition control, which is without a TEAD.

TEAD4 Cys367Ser mutant [2] = biological target: T1, TEAD4 Cys367Ser mutant; assay: Whole protein ESI mass spectrometry, adduct formation with mutant; format: binding; details: 10 μM mutant, 200 μM compound, 24 h at 4° C.
Method: The samples were centrifuged at 20,000×g for […] to remove precipitants before being injected into an empty column on an Agilent 1200 liquid chromatography system (Agilent, Santa Clara, Calif.), using 80% Buffer A (H2O, 5 mM NH4OAc) and 20% Buffer B (ACN, 5 mM NH4OAc), and the masses were detected on an Agilent 6520 Accurate Mass Q-TOF.
FIG. 4A illustrates analysis by ESI mass spectrometry after 10 μM TEAD4 Cys367Ser mutant was incubated with 200 μM compound for 24 h at 4° C. FIG. 4B illustrates measurement of fluorescence polarization due to binding when increasing concentration of TEAD4 Cys367Ser mutant was mixed with 16 nM FAM-Yap60-99 peptide (mean±s.d.; n=3). FIG. 4C illustrates measurement of fluorescence polarization due to binding when TEAD4 Cys367Ser mutant was incubated with increasing concentration of compounds for 24 h at 4° C. followed by addition of FAM-Yap60-99 (mean±s.d.; n=3).

CTGF transcript levels = assay: qRT-PCR of CTGF transcript in GBM43 cells; format: cell-based, human; details: FIG. 8C
TEAD4 = TEAD4 (Homo sapiens, UniProt Q15561); assay: Covalent streptavidin pull down of myc-TEAD4 from HEK293 cell lysates; format: cell-based; design: expressed in transfected cells; host or cells: HEK293; details: higher concentrations, with compound 9
Sequence of TEAD4 (Q15561 whole entry): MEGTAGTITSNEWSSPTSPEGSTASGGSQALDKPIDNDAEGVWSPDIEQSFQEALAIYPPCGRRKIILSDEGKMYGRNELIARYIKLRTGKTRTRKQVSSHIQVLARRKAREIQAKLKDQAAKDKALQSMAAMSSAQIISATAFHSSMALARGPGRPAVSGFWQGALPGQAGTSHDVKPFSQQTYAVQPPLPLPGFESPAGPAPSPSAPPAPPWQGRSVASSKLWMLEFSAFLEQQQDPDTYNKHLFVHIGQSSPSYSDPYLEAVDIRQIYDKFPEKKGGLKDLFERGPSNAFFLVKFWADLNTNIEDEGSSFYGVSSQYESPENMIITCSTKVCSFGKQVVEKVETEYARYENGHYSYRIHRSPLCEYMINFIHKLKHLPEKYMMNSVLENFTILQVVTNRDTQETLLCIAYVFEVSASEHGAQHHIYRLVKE
Method: HEK293 cells transfected with the myc-TEAD4 construct were grown for 48 h and then treated with DMSO or with 25 μM of compound 2 for an additional 48 h. Cells were then harvested in lysis buffer (50 mM Tris-HCl, pH 7.3, 150 mM NaCl, 0.5 mM EDTA, 1% Triton X-100, PhosSTOP phosphatase inhibitor cocktail, and EDTA-free protease inhibitors cocktail). Cell lysates containing 2 mg of protein were incubated with the indicated compounds or DMSO for 24 h. Extracts were then incubated with Dynabeads M-280 Streptavidin (Sigma-Aldrich) for 2 h at 4° C. Dynabeads were then washed and bound proteins were denatured and eluted according to the manufacturer's instructions. Relative levels of myc-TEAD4 from each complex were measured by immunoblot analysis with the anti-c-Myc antibody (1:5,000, Sigma-Aldrich).

TEAD4.Yap1 interaction [3] = biological target: T2, TEAD4.Yap1 interaction (Homo sapiens, UniProt Q15561); assay: Fluorescence polarization, GST-TEAD4 with FAM-Yap60-99 peptide; format: binding; design: TEAD4 (217-434), TEAD4 (217-434) Cys367Ser mutant and Yap1 (Full-length) were expressed as GST-fusion proteins; made in house; host or cells: E. coli BL-21 (DE3), pGEX-6P-1; details: for inhibition / maximum inhibition of TEAD4.Yap1 interaction: 24 h incubation at 4° C.; for t1/2^∞ (half-life of inactivation): corresponding to kinact
T2 sequence (Q15561 217-434): as the sequence (Q15561 217-434 C367S) above, with S151C counted along it
Method: as §1
For the determination of the inhibition efficiency kinact/K1, the protein compound incubation time was varied between […], prior to the addition of the FAM-Yap60-99 peptide and fluorescence polarization measurements. The progressive decrease in TEAD activities were plotted against time for all 10 concentrations ([…]) of the compounds and the observed rate of inhibition (kobs) was calculated by fitting a simple exponential function.
The observed rate of inhibition was then plotted against the concentration of the compound and a […] function kobs=kinact[Inhibitor]/K1+[Inhibitor] was fitted to determine the kinact and K1 values.

TEAD4.Yap1 interaction [4] = biological target: T2, TEAD4.Yap1 interaction; assay: as above; format: binding; design: TEAD4 (217-434), TEAD4 (217-434) Cys367Ser mutant and Yap1 (Full-length) were expressed as GST-fusion proteins; made in house; host or cells: E. coli BL-21 (DE3), pGEX-6P-1; details: 0.5, 6, 24, 48 h incubation at 4° C., 0.1-100 μM

SMILES | inhibition of TEAD4 Cys367Ser mutant binding to the peptide (TEAD4 Cys367Ser mutant [1]) | adduct formation with TEAD4 Cys367Ser mutant (TEAD4 Cys367Ser mutant [2]) | CTGF transcript levels versus vehicle (CTGF transcript levels) | competition with compound 9 for binding to TEAD4 (TEAD4) | reversibility of inhibition after dialysis (TEAD4.Yap1 interaction [3]; 50 μM, 24 h at 4° C., then dialyzed against buffer 24 h at 4° C.) | inhibition / maximum inhibition of TEAD4.Yap1 interaction (TEAD4.Yap1 interaction [3]) | maximum inhibition of TEAD4 (TEAD4.Yap1 interaction [3]; 48 h incubation at 4° C.) | t1/2^∞ (half-life of inactivation) (TEAD4.Yap1 interaction [3]) | kinact (TEAD4.Yap1 interaction [4]; read-out: maximum rate of inactivation (kinact) (converted)) | kinact (TEAD4.Yap1 interaction [4]; read-out: rate of inactivation kinact (converted))
O=C(CCl)c1ccccc1Nc1cccc(C(F)(F)F)c1 [Compound 2, 2-chloro-1-(2-((3-(trifluoromethyl)phenyl)amino)phenyl)ethanone] | did not inhibit | failed to form an adduct | suppressed CTGF transcript levels | compete with compound 9 for binding to TEAD4 | irreversible inhibitor | 53% | 80% | 18.2 h | 1.06e-05 s⁻¹ | –
O=C(CCl)c1ncccc1Nc1cccc(C(F)(F)F)c1 [Compound 5, 2-chloro-1-(3-((3-(trifluoromethyl)phenyl)amino)pyridin-2-yl)ethanone] | also inhibited the TEAD4 Cys367Ser mutant | formed an adduct | suppressed CTGF transcript levels | compete with compound 9 for binding to TEAD4 | – | 81% | – | 14.3 h | – | 1.36e-05 s⁻¹
